In patent publication US20250195403A1, “SKIN WHITENING, ANTI-BACTERIAL OR ANTI-ATOPIC COMPOSITION, CONTAINING SYZYGIUM FORMOSUM EXTRACT AS ACTIVE INGREDIENT” (CARBOEXPERT INC., priority 2018, published 2025):

Key:
[1] = tested on: tyrosinase; assay: Tyrosinase inhibitory activity using L-DOPA; type: biochemical; conditions: substrate L-DOPA, 25° C., 5 minutes, 475 nm
Method: Tyrosinase inhibitory activity was confirmed using L-DOPA.
• Tyrosinase solution: Tyrosinase was dissolved in 0.1M PBS (Phosphate buffered saline) buffer to prepare a solution having a concentration of 110 U/ml. • Substrate: L-DOPA was dissolved in 0.1M PBS buffer to be in the concentration of 5 mM. • Sample Usage: Diluted with distilled water to a corresponding concentration and used. • Negative control: Distilled water was added instead of the sample.
Syzygium formosum extract (Example 1, Example 2, and Comparative Examples 1 to 7), 30 μl of negative control (control), 30 μl of positive control (positive control), 70 μl of 0.1M PBS buffer, and 30 μl of substrate were added. Then, 20 μl of tyrosinase was added thereto, and the reaction was performed at a temperature of 25° C. for 5 minutes. After completion of the reaction, absorbance was measured at 475 nm. The tyrosinase inhibitory activity (%) was calculated using Equation 1 by comparing the absorbance of the test group with that of the control group.

[2] = tested on: B16F10 cell line; assay: Melanin production inhibitory activity in B16F10 cells; type: cell-based, mice; conditions: extract 0.1 mg/ml, 72 hours, 400 nm
Method: The cell line used in the test was B16F10 cell line (Korean Cell Line Bank, Korea), which is a malignant melanoma cell in mice. The cryopreserved cell line was cultured in a culture dish, and after cell line stabilization was confirmed while repeating the subculture twice to three times in the cycle of 2 to 3 days after the first cell culture, cells were cultured in a 48-well plate by the number of cells of 1×10^5/well. Then, the test was prepared by incubating for 24 hours. […] 300 μl of the medium containing each of the sample, the negative control group, and the positive control group was added to a 48-well plate on which cell had been cultured in advance, and cell were cultured for 72 hours at 37° C. under 5% CO2 while the medium was exchanged every day. Thereafter, the medium was removed by washing each well with PBS, and then the cells were treated with 200 μl of 1N NaOH. Thereafter, absorbance was measured at 400 nm using a SpectraMax M2 (Molecular devices, USA). The degree of inhibition on the production of melanin was calculated by comparing the absorbance of the test group with that of the control group treated with the negative control group by using Equation 2. [formula]

[3] = tested on: tyrosinase; assay: Tyrosinase inhibitory activity using L-tyrosine; type: biochemical; conditions: substrate L-tyrosine, sample 0.5 mg/ml, 25° C., 15 minutes, 475 nm
Method: The inhibitory activity of tyrosinase, which is an enzyme that plays an important role in the melanin synthesis process, was confirmed using the Syzygium formosum extract.
500 μl of 1 mM L-tyrosine, 900 μl of 0.1 M phosphate buffer (pH 6.8), and 100 μl of 0.5 mg/ml Syzygium formosum extract dissolved in 10% DMSO (Example 1, Example 2, and Comparative Examples 1 to 7) were mixed, and then 100 μl of tyrosinase (53.7 U/ml) was added thereto and reacted at a temperature of 25° C. for 15 minutes. At this time, DMSO was used as a control group, and 0.5 mg/ml arbutin was used as a positive control group.
The absorbance of the reaction solution was measured at 475 nm for 15 minutes at time intervals of 30 seconds, and then, the tyrosinase inhibitory activity (%) was calculated using Equation 1.

Inhibitory activity (%) [1]: 18.6%
Inhibitory activity (%) [3]: 49.1%
SMILES: OC[C@H]1O[C@@H](Oc2ccc(O)cc2)[C@H](O)[C@@H](O)[C@@H]1O [Arbutin, arbutin]
Inhibitory activity (%) [2]: 21.1%
